Assay results taken from US20060189642A1, “Synergistic combination comprising roflumilast and an anticholinergic agent selected from ipratropium, oxitropium and tiotropium salts for the treatment of respiratory diseases” (ALTANA PHARMA AG, priority 2003, published 2006).

Tested on: methacholine-induced bronchoconstriction in guinea pigs
Experiment: Inhibition of methacholine-induced bronchoconstriction in anaesthetized, mechanically ventilated guinea pigs
Type: in vivo, guinea pig
Procedure: Inhibition of Methacholine-induced Bronchoconstriction in Guinea Pigs by ROFLUMILAST in combination with tiotropium-bromide
To assess the inhibitory effect of tiotropium-bromide, ROFLUMILAST, and the combination of both compounds on methacholine-induced bronchoconstriction in anaesthetized, mechanically ventilated guinea pigs.
Male Dunkin Hartley guinea pigs, body weight 350-450 g when performing the experiments.
75 min before methacholine-induced bronchospasm (at −75 min) animals were anaesthetized with urethane i.p. (1.2 g/kg). At −5 min for i.v. injections the right jugular vein and for ventilation the trachea was cannulated. At −45 min NaCl 0.9% or tiotropium-bromide was administered i.v. (1 μg/kg). At −30 min lactose (10 mg/kg) or ROFLUMILAST (4 mg/kg) mixed with lactose was administered intratracheally by a dry powder aerolizer. At −10 min pancuronium-bromide (1.5 mg/kg) was administered i.v. to abolish spontaneous breathing. Animals were mechanically ventilated with 60 breath/min and a tidal volume of 7 ml/kg. Dynamic lung compliance (COM) and airway conductance (CON) were calculated with the help of a computer system from airflow and ventilation pressure signals. At t=0 min methacholine was administered i.v. (60 μg/kg) to induce Bronchoconstriction.
COM and CON were determined up to 120 s after methacholine-induced bronchospasm. AUCs for 0 to 120s were determined. Inhibition was calculated based on the AUC data. Data are shown as mean±SEM. Results were taken to be significant if p<0.05 versus placebo (ANOVA and Dunnett's multiple comparison test)

[1] = male Dunkin Hartley guinea pigs, methacholine 60 μg/kg i.v., tiotropium-bromide 1 μg/kg i.v. at -45 min, ROFLUMILAST 4 mg/kg intratracheally at -30 min, inhibition versus placebo

C[N+]1(C)[C@@H]2C[C@@H](OC(=O)C(O)(c3cccs3)c3cccs3)C[C@H]1[C@@H]1O[C@@H]12 [tiotropium-bromide]
Inhibition of methacholine-induced airway conductance (CON) decrease, based on AUC 0-120 s [1]: 5.9% | Inhibition of methacholine-induced dynamic lung compliance (COM) decrease, based on AUC 0-120 s [1]: 12% | Effect on methacholine-induced bronchospasm (in words) (same doses, significant if p<0.05 versus placebo (ANOVA and Dunnett's test)): no significant effect
